According to ChEMBL document CHEMBL2407043, “Hydantoin based inhibitors of MMP13--discovery of AZD6605” (Bioorg Med Chem Lett, 2013):
≈ marks a conversion by molar mass, not a printed value.

Legend:
[1] = Thermodynamic solubility of the compound in phosphate buffer at pH 7.4 at 25 degC after 24 hrs; conditions: read-out: Therm_solubility
[2] = Oral bioavailability in rat at 5 mg/kg; format: ADME, organism-based; conditions: in vivo
Cytochrome P450 2D6 = Cytochrome P450 2D6 (Homo sapiens, UniProt P10635); assay: Inhibition of human CYP2D6; format: ADME
Sequence of Cytochrome P450 2D6 (P10635 whole entry): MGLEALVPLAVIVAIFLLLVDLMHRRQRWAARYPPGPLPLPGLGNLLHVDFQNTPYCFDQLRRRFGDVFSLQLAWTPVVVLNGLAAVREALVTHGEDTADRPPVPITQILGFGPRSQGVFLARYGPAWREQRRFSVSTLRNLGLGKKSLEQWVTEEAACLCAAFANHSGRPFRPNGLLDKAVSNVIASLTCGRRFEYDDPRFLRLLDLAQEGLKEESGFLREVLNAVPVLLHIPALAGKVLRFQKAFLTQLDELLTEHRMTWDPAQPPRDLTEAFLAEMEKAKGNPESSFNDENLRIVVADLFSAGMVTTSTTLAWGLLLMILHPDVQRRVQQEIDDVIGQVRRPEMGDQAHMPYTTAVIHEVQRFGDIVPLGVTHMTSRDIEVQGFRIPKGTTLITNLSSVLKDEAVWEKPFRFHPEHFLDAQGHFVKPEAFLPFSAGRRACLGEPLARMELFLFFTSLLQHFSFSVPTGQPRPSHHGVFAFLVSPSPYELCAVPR

[3] = Volume of distribution at steady state in dog at 0.5 mg/kg, iv and 1 mg/kg, po; format: ADME, organism-based, Canis lupus familiaris; conditions: in vivo, read-out: Vdss
Cytochrome P450 3A4 = Cytochrome P450 3A4 (Homo sapiens, UniProt P08684); assay: Inhibition of human CYP3A4; format: ADME
Sequence of Cytochrome P450 3A4 (P08684 whole entry): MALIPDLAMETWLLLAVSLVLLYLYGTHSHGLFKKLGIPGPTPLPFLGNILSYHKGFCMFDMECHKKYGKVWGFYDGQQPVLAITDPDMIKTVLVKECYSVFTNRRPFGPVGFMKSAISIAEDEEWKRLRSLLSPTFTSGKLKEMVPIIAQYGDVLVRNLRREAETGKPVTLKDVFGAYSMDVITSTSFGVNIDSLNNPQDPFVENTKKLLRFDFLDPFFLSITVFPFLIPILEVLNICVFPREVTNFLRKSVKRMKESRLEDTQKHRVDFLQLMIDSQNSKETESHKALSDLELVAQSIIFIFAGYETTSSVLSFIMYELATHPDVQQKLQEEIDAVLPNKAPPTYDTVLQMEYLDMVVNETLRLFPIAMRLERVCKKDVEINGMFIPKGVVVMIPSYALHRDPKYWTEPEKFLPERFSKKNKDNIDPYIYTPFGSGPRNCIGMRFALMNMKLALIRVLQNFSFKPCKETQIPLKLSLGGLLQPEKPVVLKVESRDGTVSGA

[4] = target: Matrix metalloproteinase-14 (Homo sapiens, UniProt P50281)
Cytochrome P450 2C19 = Cytochrome P450 2C19 (Homo sapiens, UniProt P33261); assay: Inhibition of human CYP2C19; format: ADME
Sequence of Cytochrome P450 2C19 (P33261 whole entry): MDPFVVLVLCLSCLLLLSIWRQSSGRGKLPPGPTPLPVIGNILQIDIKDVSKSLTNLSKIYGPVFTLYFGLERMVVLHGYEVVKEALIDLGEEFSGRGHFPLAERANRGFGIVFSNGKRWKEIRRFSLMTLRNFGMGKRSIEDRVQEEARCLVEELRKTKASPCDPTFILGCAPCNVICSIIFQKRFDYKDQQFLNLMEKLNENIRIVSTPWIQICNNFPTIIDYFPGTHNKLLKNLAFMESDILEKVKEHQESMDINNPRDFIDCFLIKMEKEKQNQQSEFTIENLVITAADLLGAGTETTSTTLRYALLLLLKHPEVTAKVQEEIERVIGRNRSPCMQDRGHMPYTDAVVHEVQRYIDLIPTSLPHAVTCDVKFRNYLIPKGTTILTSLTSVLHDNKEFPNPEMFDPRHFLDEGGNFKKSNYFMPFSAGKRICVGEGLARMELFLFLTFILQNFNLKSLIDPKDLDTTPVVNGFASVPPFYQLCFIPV

[5] = Half life in rat at 2 mg/kg, iv and 5 mg/kg, po; format: ADME, organism-based; conditions: in vivo
[6] = Oral bioavailability in dog at 1 mg/kg; format: ADME, organism-based, Canis lupus familiaris; conditions: in vivo
[7] = Half life in dog at 0.5 mg/kg, iv and 1 mg/kg, po; format: ADME, organism-based, Canis lupus familiaris; conditions: in vivo
[8] = Clearance in dog at 0.5 mg/kg, iv and 1 mg/kg, po; format: ADME, organism-based, Canis lupus familiaris; conditions: in vivo
Cytochrome P450 2C9 = Cytochrome P450 2C9 (Homo sapiens, UniProt P11712); assay: Inhibition of human CYP2C9; format: ADME
Sequence of Cytochrome P450 2C9 (P11712 whole entry): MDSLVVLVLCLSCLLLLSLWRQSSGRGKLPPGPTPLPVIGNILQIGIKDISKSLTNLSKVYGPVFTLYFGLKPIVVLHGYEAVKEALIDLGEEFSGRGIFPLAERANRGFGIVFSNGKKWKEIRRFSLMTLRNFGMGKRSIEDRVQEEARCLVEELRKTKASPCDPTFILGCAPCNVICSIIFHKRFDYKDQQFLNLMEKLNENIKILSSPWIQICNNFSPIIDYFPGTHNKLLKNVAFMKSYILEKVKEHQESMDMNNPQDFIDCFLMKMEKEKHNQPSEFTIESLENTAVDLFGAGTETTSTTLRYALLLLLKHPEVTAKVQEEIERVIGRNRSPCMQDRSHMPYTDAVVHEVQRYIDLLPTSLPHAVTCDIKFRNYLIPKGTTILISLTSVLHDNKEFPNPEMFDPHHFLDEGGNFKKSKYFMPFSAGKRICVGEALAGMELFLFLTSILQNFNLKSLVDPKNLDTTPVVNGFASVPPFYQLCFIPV

Cytochrome P450 1A2 = target: T1, Cytochrome P450 1A2 (Homo sapiens, UniProt P05177); assay: Inhibition of human CYP1A2; format: ADME
T1 sequence (P05177 whole entry): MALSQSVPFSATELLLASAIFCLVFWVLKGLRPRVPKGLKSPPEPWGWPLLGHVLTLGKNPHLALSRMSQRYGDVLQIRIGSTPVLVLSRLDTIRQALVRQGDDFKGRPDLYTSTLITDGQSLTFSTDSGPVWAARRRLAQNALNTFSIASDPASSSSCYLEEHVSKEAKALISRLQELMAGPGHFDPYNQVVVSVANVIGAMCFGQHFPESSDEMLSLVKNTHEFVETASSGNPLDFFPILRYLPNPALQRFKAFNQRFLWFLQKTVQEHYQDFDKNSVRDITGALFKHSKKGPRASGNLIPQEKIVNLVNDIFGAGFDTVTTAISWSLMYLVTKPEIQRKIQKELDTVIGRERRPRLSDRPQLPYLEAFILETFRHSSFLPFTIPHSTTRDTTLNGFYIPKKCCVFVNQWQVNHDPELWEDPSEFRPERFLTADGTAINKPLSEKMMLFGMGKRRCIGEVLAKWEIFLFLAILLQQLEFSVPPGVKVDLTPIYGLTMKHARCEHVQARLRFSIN

[9] = Clearance in rat at 2 mg/kg, iv and 5 mg/kg, po; format: ADME, organism-based; conditions: in vivo
[10] = Volume of distribution at steady state in rat at 2 mg/kg, iv and 5 mg/kg, po; format: ADME, organism-based; conditions: in vivo, read-out: Vdss
[11] = Half life in rat; format: ADME, organism-based; conditions: in vivo
in vitro = conditions: human, liver microsomes
[12] = Clearance in rat at 2 mg/kg, iv; format: ADME, organism-based; set-up: dose 2 mg/kg, route intravenous; conditions: in vivo
[13] = Oral bioavailability in rat at 3 to 10 mg/kg; format: ADME, organism-based; conditions: in vivo
[14] = Elimination half life in rat; format: ADME, organism-based; conditions: in vivo, read-out: beta t1/2 (converted)
[15] = Elimination half life in mouse; format: ADME, organism-based; conditions: in vivo, read-out: beta t1/2 (converted)
[16] = Elimination half life in dog; format: ADME, organism-based, Canis lupus familiaris; conditions: in vivo, read-out: beta t1/2 (converted)
[17] = target: Macrophage metalloelastase (Homo sapiens, UniProt P39900); assay: Inhibition of MMP-12 (unknown origin) by fluorescence assay
Sequence of Macrophage metalloelastase (P39900 whole entry): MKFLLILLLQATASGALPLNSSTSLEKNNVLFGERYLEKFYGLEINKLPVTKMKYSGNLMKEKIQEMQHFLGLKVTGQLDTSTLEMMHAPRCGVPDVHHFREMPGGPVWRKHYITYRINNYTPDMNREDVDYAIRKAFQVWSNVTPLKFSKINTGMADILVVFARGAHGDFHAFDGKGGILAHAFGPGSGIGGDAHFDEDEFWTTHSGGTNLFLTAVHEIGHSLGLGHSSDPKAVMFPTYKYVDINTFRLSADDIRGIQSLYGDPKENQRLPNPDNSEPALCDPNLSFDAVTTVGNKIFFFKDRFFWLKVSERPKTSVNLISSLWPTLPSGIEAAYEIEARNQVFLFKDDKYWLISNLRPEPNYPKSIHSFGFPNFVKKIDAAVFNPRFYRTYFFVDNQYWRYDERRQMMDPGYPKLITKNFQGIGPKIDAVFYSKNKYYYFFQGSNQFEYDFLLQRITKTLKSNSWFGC

[18] = Intrinsic clearance in rat liver microsomes; format: ADME, Microsome; conditions: read-out: CLH
[19] = Intrinsic clearance in dog liver microsomes; format: ADME, Canis lupus familiaris, Microsome; conditions: read-out: CLH

Q: Which solubility thermodynamic at 24 h [1] does the source give for `C[C@]1(CS(=O)(=O)N2CCC(Oc3ccc(OCc4cccnc4)cc3)CC2)NC(=O)NC1=O` here?
A: Its solubility thermodynamic at 24 h is 8.4 µM (≈ 3.99 µg/mL).

Q: With `C[C@]1(CS(=O)(=O)N2CCC(Oc3ccc(OCc4ccccn4)cc3)CC2)NC(=O)NC1=O` as the compound, how does the bioavailability [2] read?
A: The bioavailability was 35%.

Q: And the IC50 (Cytochrome P450 2D6)?
A: Its IC50 is greater than 10 µM.

Q: What about the Vd [3] of the same compound?
A: The Vd was 0.6 L/kg.

Q: What about the IC50 (Cytochrome P450 3A4) of the same compound?
A: The IC50 was greater than 10 µM.

Q: What about the solubility thermodynamic at 24 h [1] of the same compound?
A: Its solubility thermodynamic at 24 h is 20 µM (≈ 9.49 µg/mL).

Q: What about the IC50 [4] of the same compound?
A: The IC50 was 6.9 µM.

Q: What about the IC50 (Cytochrome P450 2C19) of the same compound?
A: Its IC50 is greater than 10 µM.

Q: What about the half-life [5] of the same compound?
A: The half-life was 2.5 h.

Q: And the bioavailability [6]?
A: Its bioavailability is 51%.

Q: What about the half-life [7] of the same compound?
A: The half-life was 2.3 h.

Q: What about the clearance [8] of the same compound?
A: The clearance was 3 mL/min/kg.

Q: What about the IC50 (Cytochrome P450 2C9) of the same compound?
A: The IC50 was greater than 10 µM.

Q: What about the IC50 (Cytochrome P450 1A2) of the same compound?
A: Its IC50 is greater than 10 µM.

Q: And the clearance [9]?
A: Its clearance is 17 mL/min/kg.

Q: What about the Vd [10] of the same compound?
A: The Vd was 0.8 L/kg.

Q: What does the source list for `C[C@]1(CS(=O)(=O)N2CCC(Oc3ccc(OCc4cscn4)cc3)CC2)NC(=O)NC1=O`?
A: solubility thermodynamic at 24 h [1]: 87 µM (≈ 41.8 µg/mL); IC50 [4]: 4.09 µM

Q: Which solubility thermodynamic at 24 h [1] does the source give for `C[C@]1(CS(=O)(=O)N2CCC(Oc3ccc(OCc4cnsn4)cc3)CC2)NC(=O)NC1=O` here?
A: The solubility thermodynamic at 24 h was 28 µM (≈ 13.5 µg/mL).

Q: And the IC50 [4]?
A: Its IC50 is 0.35 µM.

Q: For `C[C@]1(CS(=O)(=O)N2CCC(Oc3ccc(OCc4ccc(C(F)(F)F)o4)cc3)CC2)NC(=O)NC1=O`, which IC50 [4] is on record?
A: Its IC50 is 1.86 µM.

Q: With `C[C@]1(CS(=O)(=O)N2CCN(c3ncc(OCc4ccc(F)cc4)cn3)CC2)NC(=O)NC1=O` as the compound, how does the solubility thermodynamic at 24 h [1] read?
A: Its solubility thermodynamic at 24 h is 16 µM (≈ 7.66 µg/mL).

Q: And the half-life [11]?
A: Its half-life is 1.9 h.

Q: What about the microsomal CLint (in vitro) of the same compound?
A: Its microsomal CLint is 16 µL/min/mg.

Q: And the clearance [12]?
A: Its clearance is 4.8 mL/min/kg.

Q: What about the Vd [10] of the same compound?
A: The Vd was 0.5 L/kg.

Q: For `C[C@]1(CS(=O)(=O)N2CCN(c3ncc(OCc4cccc(C#N)c4)cn3)CC2)NC(=O)NC1=O`, which bioavailability [13] is on record?
A: The bioavailability was 51%.

Q: What about the half-life [14] of the same compound?
A: Its half-life is 7.5 h.

Q: What about the half-life [15] of the same compound?
A: Its half-life is 5.8 h.

Q: What about the solubility thermodynamic at 24 h [1] of the same compound?
A: Its solubility thermodynamic at 24 h is 66 µM (≈ 32 µg/mL).

Q: And the half-life [11]?
A: Its half-life is 7.5 h.

Q: And the microsomal CLint (in vitro)?
A: Its microsomal CLint is less than 2 µL/min/mg.

Q: What about the clearance [12] of the same compound?
A: Its clearance is 18.1 mL/min/kg.

Q: And the half-life [16]?
A: Its half-life is 5.4 h.

Q: What about the Vd [10] of the same compound?
A: Its Vd is 0.5 L/kg.

Q: With `C[C@]1(CS(=O)(=O)N2CCN(c3ncc(OCc4ccc(S(C)(=O)=O)cc4)cn3)CC2)NC(=O)NC1=O` as the compound, how does the solubility thermodynamic at 24 h [1] read?
A: The solubility thermodynamic at 24 h was 1 µM (≈ 0.539 µg/mL).

Q: For `C[C@]1(CS(=O)(=O)N2CCC(Oc3ccc(F)cc3)CC2)NC(=O)NC1=O`, which solubility thermodynamic at 24 h [1] is on record?
A: Its solubility thermodynamic at 24 h is 52 µM (≈ 20 µg/mL).

Q: What about the IC50 [17] of the same compound?
A: The IC50 was 0.0237 µM.

Q: Which solubility thermodynamic at 24 h [1] does the source give for `CCOc1ccc(OC2CCN(S(=O)(=O)C[C@@]3(C)NC(=O)NC3=O)CC2)cc1` here?
A: The solubility thermodynamic at 24 h was 15 µM (≈ 6.17 µg/mL).

Q: And the IC50 [4]?
A: The IC50 was 2.82 µM.

Q: And the IC50 [17]?
A: The IC50 was 0.002 µM.

Q: For `C[C@]1(CS(=O)(=O)N2CCC(Oc3ccc(OC(F)(F)F)cc3)CC2)NC(=O)NC1=O`, which solubility thermodynamic at 24 h [1] is on record?
A: Its solubility thermodynamic at 24 h is 18 µM (≈ 8.13 µg/mL).

Q: What about the IC50 [4] of the same compound?
A: Its IC50 is 9.5 µM.

Q: What about the IC50 [17] of the same compound?
A: Its IC50 is 0.0033 µM.

Q: Which solubility thermodynamic at 24 h [1] does the source give for `C[C@]1(CS(=O)(=O)N2CCC(Oc3ccc(OCC(F)(F)F)cc3)CC2)NC(=O)NC1=O` here?
A: Its solubility thermodynamic at 24 h is 34 µM (≈ 15.8 µg/mL).

Q: And the IC50 [4]?
A: Its IC50 is 1.95 µM.

Q: With `C[C@]1(CS(=O)(=O)N2CCC(Oc3ccc(OCCC(F)(F)F)cc3)CC2)NC(=O)NC1=O` as the compound, how does the solubility thermodynamic at 24 h [1] read?
A: The solubility thermodynamic at 24 h was 110 µM (≈ 52.7 µg/mL).

Q: What about the IC50 [4] of the same compound?
A: The IC50 was 3.12 µM.

Q: What does the source list for `C[C@]1(CS(=O)(=O)N2CCC(Oc3ccc(OCC(F)(F)C(F)(F)F)cc3)CC2)NC(=O)NC1=O`?
A: solubility thermodynamic at 24 h [1]: 4.4 µM (≈ 2.27 µg/mL); IC50 [4]: 4.74 µM

Q: Which results are given for `C[C@]1(CS(=O)(=O)N2CCC(Oc3ccc(OCC(F)(F)C(F)F)cc3)CC2)NC(=O)NC1=O`?
A: solubility thermodynamic at 24 h [1]: 32 µM (≈ 15.9 µg/mL); IC50 [4]: 0.553 µM

Q: For `C[C@]1(CS(=O)(=O)N2CCC(Oc3ccc(OC(F)(F)C(F)(F)F)cc3)CC2)NC(=O)NC1=O`, which solubility thermodynamic at 24 h [1] is on record?
A: The solubility thermodynamic at 24 h was less than 2 µM.

Q: And the IC50 [4]?
A: Its IC50 is greater than 10 µM.

Q: Which IC50 (Cytochrome P450 2D6) does the source give for `C[C@]1(CS(=O)(=O)N2CCC(Oc3ccc(C(F)(F)F)cc3)CC2)NC(=O)NC1=O` here?
A: The IC50 was greater than 40 µM.

Q: What about the IC50 (Cytochrome P450 3A4) of the same compound?
A: The IC50 was greater than 40 µM.

Q: What about the solubility thermodynamic at 24 h [1] of the same compound?
A: The solubility thermodynamic at 24 h was 23 µM (≈ 10 µg/mL).

Q: What about the IC50 (Cytochrome P450 2C19) of the same compound?
A: Its IC50 is greater than 40 µM.

Q: And the microsomal CLint [18]?
A: Its microsomal CLint is less than 10 µL/min/mg.

Q: And the IC50 (Cytochrome P450 2C9)?
A: The IC50 was greater than 40 µM.

Q: And the IC50 (Cytochrome P450 1A2)?
A: Its IC50 is greater than 40 µM.

Q: What about the microsomal CLint (in vitro) of the same compound?
A: The microsomal CLint was less than 10 µL/min/mg.

Q: What about the microsomal CLint [19] of the same compound?
A: Its microsomal CLint is less than 10 µL/min/mg.

Q: What about the IC50 [17] of the same compound?
A: Its IC50 is 0.0059 µM.

Q: For `C[C@]1(CS(=O)(=O)N2CCC(Oc3ccc(Cl)cc3)CC2)NC(=O)NC1=O`, which solubility thermodynamic at 24 h [1] is on record?
A: The solubility thermodynamic at 24 h was 12 µM (≈ 4.82 µg/mL).

Q: And the IC50 [17]?
A: Its IC50 is 0.0089 µM.
